# Measured values published in patent US10188710B2, “Regulatory T cell epitope and hepatitis C virus homolog” (Rhode Island Council on Postsecondary Education, priority 2013, dated 2019).
# Entries after “also recorded” stand apart in the source; their conditions may differ.
# How the values were obtained:
# Type in all cases: cell-based, human
# [1] = system: PBMCs derived from HCV-infected (Ab+VL+) patients; experiment: CD3+CD4+FoxP3+ cell induction in PBMC cultures from HCV-infected patients (flow cytometry); settings: 10 μg/ml peptide, 5 days; for increase in CD3+CD4+FoxP3+ cells: PBMCs from Ab+VL+ patients, vs medium alone
# Excerpt: (§1) HCV-seropositive subjects with persistent viremia (Ab^+VL^+), patients who spontaneously resolved infection (Ab^+VL^−) and HCV-seronegative, non-infected (Ab^−VL^−) individuals were recruited from the Rhode Island Adult Corrections Institution (ACI) to participate in this study. Recruitment methods and the population are described elsewhere. The Institutional Review Boards of the Miriam Hospital, Rhode Island Department of Corrections and Office of Human Research Protection approved this study. All HCV infected subjects included in these analyses were infected with HCV genotype 1a or 1b (Versant HCV genotype assay 2, Siemens Healthcare Diagnostics Inc.). Hartford Hospital Transplantation Research Laboratory (Hartford, Conn.) and the Cellular Mediated Immunology Core Laboratory at the University of Rhode Island (Providence, R.I.) performed HLA typing.
# Cryopreserved PBMCs were thawed; suspended in HEPES-buffered RPMI1640 medium supplemented with 10% HuAB serum (Valley Biomedical, Winchester, Va.), glutamine, 100 U/ml penicillin and 100 μg/ml streptomycin; and rested overnight at 37° C. in a humidified, CO2 incubator. On the following day, the PBMCs were centrifuged and resuspended in fresh medium containing 5% HuAB serum; 1×10^6 cells/nil were transferred to deep, flat-bottom, non-treated 48-well plates. The peptide sequence indicated in the text was added (10 μg/ml final concentration) and the cells were incubated for 5 days. PBMCs cultured in the presence of medium with 0.1% DMSO served as a negative control. Half the spent medium was replaced on day 3. The cells were collected for analysis on day 5.
# The cells collected after 5 days incubation were quantified and characterized in accordance with methods we described previously. Dye-conjugated mouse monoclonal antibodies specific for the following determinants were purchased from BioLegend (San Diego, Calif.) and used: CD3, CD4 (clone OKT4), CD8a (clone HIT8a); CD39 (clone A1), and CD304 (clone 14H4); anti-human CD25 (clone M-A251) and anti-human FoxP3 (clone 236a) were purchased BD Biosciences (San Jose, Calif.). Data were collected on a 4 laser (13 color capability) BD LSRII Flow Cytometer (BD Biosciences, San Jose, Calif.) and analyzed using FlowJo software (Tree Star, Inc., Ashland, Oreg.). All analyses were conducted using the appropriate isotype controls to correct for non-specific staining PBMCs were cultured in the presence of medium alone, 10 μg/ml HCV_G1_p7_794, or 10 μg/ml HCV_G1_NS4b_1941.
# The results were analyzed using the SigmaStat statistics program (Aspire Software International). Individual means were compared using a non-paired Student's t test or a Mann-Whitney Rank Sum test.
# The cells were collected after 5 days incubation and analyzed by flow cytometry (FIGS. 1A-1C). The CD3+CD4+FoxP3+ cells were further characterized by the expression of CD25 and CD39 (FIG. 1B). The gating scheme and representative analyses are shown.
# [2] = system: PBMCs derived from non-infected (Ab-VL-) individuals; experiment: CD3+CD4+FoxP3+ cell induction in PBMC cultures from non-infected individuals (flow cytometry); settings: 10 μg/ml peptide, 5 days
# Excerpt: as §1, with “typing. […]” for “typing.”
# The cells collected after 5 days incubation were quantified and characterized in accordance with methods we described previously. […] Data were collected on a 4 laser (13 color capability) BD LSRII Flow Cytometer (BD Biosciences, San Jose, Calif.) and analyzed using FlowJo software (Tree Star, Inc., Ashland, Oreg.). […]
# The results were analyzed using the SigmaStat statistics program (Aspire Software International). […]
# [3] = system: CFSE-labeled Ab+VL+ PBMCs; experiment: CFSE proliferation assay with or without anti-CD3
# Protocol: For proliferation assays, cells rested overnight were labeled with carboxyfluorescein diacetate, succinimidyl ester (CFSE: Life Technologies Corporation, Carlsbad, Calif.) prior to culture in the presence or absence of 30 ng/ml anti-CD3 monoclonal antibody (clone HIT3a; BioLegend, San Diego, Calif.) and 10 μg/ml HCV_G1_p7_794. Cell proliferation was evaluated by flow cytometric analysis according to the protocol provided by Life Technologies in which a loss in fluorescence intensity correlates directly with the extent of replication.
# The hallmark of CD3^+CD4^+FoxP3^+ Treg cells is suppressor activity. CSFE-labeled, Ab^+VL^+ PBMCs were cultured with medium alone or medium that contained 30 ng/ml anti-CD3, 10 μg/ml HCV_G1_p7_794 or a combination of anti-CD3 and HCV_G1_p7_794. After 5 days incubation, the cells were collected and proliferation the total (FIG. 3BA) and CD3^+CD4^+ (FIG. 3B) PBMC populations was estimated by flow cytometry. Data were obtained in a single experiment representative of the results obtained for PBMCs derived from six HCV-infected patients.
Sequence,increase in CD3+CD4+FoxP3+ cells [1],increase in CD3+CD4+FoxP3+ cells [2],increase in CD3+CD4+FoxP3+ cells ([2]; vs medium alone),CD25 and CD39 expression by induced CD3+CD4+FoxP3+ cells ([1]; Ab+VL+ PBMCs),CD304 (neuropilin) expression by CD4+FoxP3+ cells ([1]; Ab+VL+ PBMCs),"effect on proliferative response to anti-CD3 monoclonal antibody ([3]; 30 ng/ml anti-CD3 plus 10 μg/ml peptide, 5 days, total or CD3+CD4+ population)","effect on proliferation of CD3+CD4+ T cells ([3]; 10 μg/ml peptide alone, no anti-CD3, 5 days)"
"ISGIQYLAGLSTLPGNPA [HCV_G1_NS4b_1769, reference compound]",failed to elicit a CD3+CD4+FoxP3+ cell response,,,,,,
PLLLLLLSLPPRA [Human p7_794],significant increase,three,significant increase,,,,
WPLLLLLLALPQRAYAQ (Hepatitis C virus) [HCV_G1_p7_794],marked increase,,,expressed both CD25; also recorded: vast majority of these cells expressed CD39,vast majority of CD4^+FoxP3^+ cells among Ab^+VL^+ PBMCs cultured in the presence of HCV_G1_p7_794 were CD304-negative; also recorded: only a minority,"reproducible, albeit slight, decrease",no effect
"AARVTQILSSL TITQLLKRLHQWI [HCV_G1_NS4b_1941, reference compound]",failed to promote an increase,,,,,,
